# What was measured:
# [1] = system: T cells expressing anti-CD19 CAR/PSMA^(N9del); assay: Cytokine release in co-culture in the presence of DCFPyL; format: cell-based, human; conditions: E:T 4:1 and 1:1; eight 3-fold serial dilutions of DCFPyL starting from 1×10^−5 M
# Protocol: Specifically, accumulated amounts (pg/mL) of cytokine(s) (IL-2, IFN-gamma, TNF-alpha) were assessed following incubation of the target cells and the various populations of engineered cells, for a period of approximately 22-24 hours. Such assays provided a measure of antigen-specific cytokine secretion per CAR+ cell in the dose. In other assays, cytolytic activity against CD19-expressing target cells was assessed after incubation with the T cells.
# Cytokine amounts in culture supernatants were determined using a multiplex cytokine immunoassay (Luminex®).
# [2] = system: T cells expressing anti-CD19 CAR/PSMA^(N9del); assay: Cytolytic assay in the presence of DCFPyL; format: cell-based, human; conditions: E:T 4:1; seven 3-fold serial dilutions of DCFPyL starting from 3.33×10^−6 M
# Protocol: Cytolytic activity was assessed by measuring the loss of viable target cells over a period of three days, as determined by red fluorescent signal (using the IncuCyte® Live Cell Analysis System, Essen Bioscience). The number of NLR+ target cells was determined every 2 hours over time from 0 hours to 66 hours. Where indicated, a killing index was determined as 1/area under the curve (AUC) of the NLR+ target cell count over time, from 0 hours to 66 hours.
# Specifically, co-cultures were incubated with DCFPyL at one of seven (7) 3-fold serial dilutions of DCFPyL starting from 3.33×10^−6 M, or were incubated without DCFPyL (0 M).
structure (smiles),measurement,setting,value
"O=C(O)CCC(NC(=O)NC(CCCCNC(=O)c1ccc(F)nc1)C(=O)O)C(=O)O (centres unmarked) [DCFPyL, 2-(3-{1-carboxy-5-[(6-fluoro-pyridine-3-carbonyl)-amino]-pentyl}-ureido)-pentanedioicacid]",effect on IFN-γ production,[1],did not substantially affect
same,effect on cytolytic activity of T cells expressing anti-CD19 CAR/PSMA^(N9del),[2],did not affect

# From patent US20230190796A1, “ENGINEERED CELLS EXPRESSING PROSTATE-SPECIFIC MEMBRANE ANTIGEN (PSMA) OR A MODIFIED FORM THEREOF AND RELATED METHODS” (Juno Therapeutics, Inc., priority 2017, published 2023)
